Calls of active or inactive are those of the source.

Assay [1] can be described thus: Late stage assay provider results from the probe development effort to identify inhibitors of the Plasmodium falciparum M18 Aspartyl Aminopeptidase (M18AAP): radiolabel-based cell-based dose response assay to identify compounds that inhibit P. falciparum growth in RBCs, Set 2.. The assay is classed as functional.
The next assay concerns the target Paired box protein Pax-8 (Homo sapiens, UniProt Q06710). The experiment in a line: PAX8 transcriptional activity inhibition in RMG-I – RMG-I cells, luciferase, cherry-pick, dose response (AID 687027).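 Note: luciferase reporter driven by Pax8 target thyroperoxidase promoter measured by SteadyGlo luminescence.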 In kind it is functional, cell-based.
A short description of assay [2]: OVCAR8 cell viability loss – plate reader, dry powder samples, PAX8 project, dose response (AID 743197). In kind it is functional, cell-based. To be noted: OVCAR-8.
A short description of assay [3]: IGROV1 cell killing – plate reader, dry powder samples, PAX8 inhibitor project, dose response (AID 743043). The assay is classed as functional, cell-based. Particulars: IGROV-1.
Assay [4] is described as follows: OVCAR-3 cell viability loss – plate reader, dry powder samples, PAX8 inhibitor project, dose response (AID 743044). The assay is classed as functional, cell-based.
The nature of assay [5]: general cell-killing toxicity readout – plate reader, dry powder samples, cytotoxicity control for PAX8 inhibitor project, dose response (AID 743021). In kind it is functional, cell-based.
A short description of assay [6]: P. falciparum Dd2 growth inhibitors, dose response, SYBR Green, cherry-picked samples (AID 1159567). The assay is classed as functional, cell-based.
Assay [7] in a line: toxicity to human hepatoma HepG2 cells – cell-based, cherry-picked samples, cytotoxicity control, dose response (AID 1159577). In kind it is functional.
Assay [8] can be described thus: reduced cellular PGC1a acetyl-lysine signal – cell-based, cherry-picked samples, dose response (AID 720514).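 Note: potency may reflect raised or lowered acetylation signal.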 The assay is classed as functional.
Assay [9] can be described thus: antileishmanial activity on axenic amastigotes – plate reader, cherry pick, dose response (AID 651891). In kind it is functional, cell-based. Particulars: Leishmania donovani.
The nature of assay [10]: African trypanosome bloodstream form growth inhibition – STIB900 strain, plate reader, dry powder, dose response (AID 651894). In kind it is functional, cell-based.
Assay [11] in a line: Trypanosoma cruzi replication inhibitors in host cells – cell-based, plate reader, dry powder samples, dose response (AID 651845). The assay is classed as functional.
The nature of assay [12]: intracellular Trypanosoma cruzi inhibitors in host cells – cell-based, plate reader, cherry-pick samples, set 3, dose response (AID 651818).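 Note: compounds incubated with infected cells for about four days.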 The assay is classed as functional.
A short description of assay [13]: African trypanosome bloodstream form growth inhibition – STIB900 strain, plate reader, cherry pick, dose response (AID 651893). In kind it is functional, cell-based, Trypanosoma brucei rhodesiense. Particulars: Trypanosoma brucei.
The nature of assay [14]: intracellular Chagas parasite inhibition in myoblasts – Tulahuen strain, L-6 host cells, dry powder, dose response (AID 651890). The assay is classed as functional, cell-based.
Assay [15] can be described thus: L6 myocyte viability loss – cell-based, plate reader, cherry-pick, cytotoxicity control, dose response (AID 651896). The assay is classed as functional.
Assay [16] can be described thus: anti-trypanosomal activity in BESM host cells – imaging, CA-I/72 strain, bovine embryo skeletal muscle, dry powder, dose response (AID 651885). The assay is classed as functional, cell-based.
Assay [17] in a line: antimalarial activity against erythrocytic parasites – NF54 strain, plate reader, dry powder, dose response (AID 651889). In kind it is functional, cell-based.
Assay [18] in a line: T. cruzi growth inhibition in host cells, dose response, cell-based, plate reader, dry powder, set 2 (AID 652275). In kind it is functional.
Assay [19] is described as follows: host muscle cell viability loss – plate reader, dry powder, counter-screen for T. cruzi inhibitor project, dose response (AID 651895). In kind it is functional, cell-based. Background: The purpose of a counterscreen is to sort out artefacts and off-target activity.
A short description of assay [20]: antileishmanial activity on axenic amastigotes – plate reader, dry powder, dose response (AID 651892). The assay is classed as functional, cell-based.
Assay [21] is described as follows: NIH-3T3 fibroblast cytotoxicity, dose response, cytotoxicity control, cell-based, fluorescence, Alamar Blue, secondary assay (AID 2327).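 Note: NIH-3T3 mouse fibroblasts cultured with fluconazole at 8 µg/mL.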 In kind it is functional. For orientation: Alamar Blue is a resazurin reagent that responds to reducing activity.
The nature of assay [22]: non-specific 3'UTR reporter inhibition in Clone20-Shn3RL – cell-based, Renilla luciferase, cherry-picked, counter-screen for Shn3 inhibitor project, dose response (AID 624133). In kind it is functional.
Another assay has as its system Streptococcus. Put plainly: GAS UMAA2166 growth inhibition – luminescence, BacTiterGlo, counter-screen for streptokinase expression inhibitor project, dose response (AID 1915).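 Note: potency for reduction of bacterial viability or growth.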 The assay is classed as functional, organism-based.
Assay [23] can be described thus: general mammalian cell viability loss – inhibitor set, cherry-pick, set 2, cytotoxicity control for miR-122 modulator project, dose response (AID 720697). In kind it is functional, cell-based.
A short description of assay [24]: ATP-based viability loss in HepG2 cells – cell-based, CellTiter-Glo luminescence, dry powder, set 3, cytotoxicity control, dose response (AID 720594). The assay is classed as functional. A general note: ATP-based viability assays read luminescence as a measure of living cells.
Assay [25] can be described thus: cells. In kind it is functional, cell-based.
The nature of assay [26]: loss of viability in HepG2 cells – cell-based, CellTiter-Glo, cherry-picked, cytotoxicity control for Shn3 inhibitor project, dose response (AID 624134). In kind it is functional.
Assay [27] is described as follows: ATP-based viability loss in HeLa cells – cell-based, CellTiter-Glo luminescence, dry powder, set 2, cytotoxicity control, dose response (AID 720593). The assay is classed as functional.
Assay [28] can be described thus: reduction of Shn3 3'UTR-driven luciferase in osteoblasts – cell-based, Clone20 osteoblasts, firefly luciferase, cherry-picked, dose response (AID 624132).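 Note: firefly luciferase luminescence from reporter carrying the Shn3 3'UTR in osteoblasts.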 In kind it is functional.
The nature of assay [29]: cells. In kind it is functional, cell-based. The source holds these as a separate data set.
The nature of assay [30]: general mammalian cell viability loss – activator set, cherry-pick, cytotoxicity control for miR-122 modulator project, dose response (AID 720690).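 Note: HEK293T human cells scored for general mammalian cytotoxicity.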 In kind it is functional, cell-based.
The target in assay [31] is T1, Microphthalmia-associated transcription factor (Homo sapiens, UniProt O75030).
T1 sequence (O75030 whole entry): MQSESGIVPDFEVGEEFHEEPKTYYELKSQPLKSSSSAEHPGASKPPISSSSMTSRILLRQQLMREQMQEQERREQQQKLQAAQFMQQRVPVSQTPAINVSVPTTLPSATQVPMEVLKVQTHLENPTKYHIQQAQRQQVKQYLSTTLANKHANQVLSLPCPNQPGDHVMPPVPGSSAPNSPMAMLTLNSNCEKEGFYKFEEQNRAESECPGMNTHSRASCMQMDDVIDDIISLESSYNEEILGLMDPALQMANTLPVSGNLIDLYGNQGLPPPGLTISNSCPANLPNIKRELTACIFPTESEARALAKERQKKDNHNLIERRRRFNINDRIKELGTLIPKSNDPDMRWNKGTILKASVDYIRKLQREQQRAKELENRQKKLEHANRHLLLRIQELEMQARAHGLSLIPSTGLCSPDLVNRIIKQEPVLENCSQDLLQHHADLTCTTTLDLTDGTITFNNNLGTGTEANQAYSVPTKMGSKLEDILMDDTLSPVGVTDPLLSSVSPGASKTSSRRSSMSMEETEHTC
Put plainly: reducers of TRPM1 reporter luminescence, concentration series – cell-based, SK-MEL-5, cherry-picked, set 3, MITF inhibitor project, dose response (AID 493073).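 Note: SK-MEL-5 melanoma cells with luciferase driven by the MITF target TRPM1 promoter.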 In kind it is functional.

A short description of assay [32]: fluconazole-exposed Candida albicans growth modulators – fluorescence, retest, confirmation (AID 2467). The assay is classed as functional, cell-based.
A further assay deals with HT-1080. The experiment in a line: HT1080 cell viability loss – fluorescence readout (AID 620). In kind it is functional, cell-based. Particulars: Homo sapiens.
Assay [33] concerns the target Luciferin 4-monooxygenase (Photinus pyralis, UniProt P08659). The experiment in a line: Counter Screen for Luciferase-based Assay Positives. [Related pubchem assays: 620, 618, 411 ].
Assay [34] in a line: ATP-based viability loss in HEK293T cells – cell-based, CellTiter-Glo luminescence, dry powder, set 2, cytotoxicity control, dose response (AID 720595). The assay is classed as functional. Particulars: HEK293.
Another assay addresses T2, Coagulation factor XII (Homo sapiens, UniProt P00748).
T2 sequence (P00748 whole entry): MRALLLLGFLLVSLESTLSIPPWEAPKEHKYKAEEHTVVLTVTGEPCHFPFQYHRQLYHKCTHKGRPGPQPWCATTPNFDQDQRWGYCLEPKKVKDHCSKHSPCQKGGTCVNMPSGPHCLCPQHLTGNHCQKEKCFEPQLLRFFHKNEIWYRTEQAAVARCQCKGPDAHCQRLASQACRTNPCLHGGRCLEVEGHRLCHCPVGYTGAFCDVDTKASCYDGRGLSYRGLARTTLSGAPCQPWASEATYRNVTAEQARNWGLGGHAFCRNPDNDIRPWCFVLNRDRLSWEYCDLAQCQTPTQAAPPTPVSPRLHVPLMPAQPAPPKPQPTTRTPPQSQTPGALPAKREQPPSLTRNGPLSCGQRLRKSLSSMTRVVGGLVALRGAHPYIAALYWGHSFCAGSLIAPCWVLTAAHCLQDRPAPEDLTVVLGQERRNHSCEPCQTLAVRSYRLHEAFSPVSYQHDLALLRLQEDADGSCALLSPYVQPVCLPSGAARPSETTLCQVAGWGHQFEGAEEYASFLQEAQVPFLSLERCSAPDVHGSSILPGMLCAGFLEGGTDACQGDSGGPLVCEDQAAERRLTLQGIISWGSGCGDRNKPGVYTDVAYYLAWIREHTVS
Put plainly: activated coagulation factor XII inhibitor potency, concentration-effect curve, cell-free (AID 716). The assay is classed as functional.

For assay [35], the system named is Streptococcus sp. 'group A'. The experiment in a line: Streptococcus pyogenes SK(-)GAS viability under kanamycin – luminescence, BacTiterGlo, confirmation, counter-screen for streptokinase expression inhibitor project, dose response (AID 1900). In kind it is functional, organism-based.
Assay [36] is described as follows: PAX5 cellular inhibition readout – cell-based, plate reader, dry powder samples, selectivity assay for PAX8 inhibitor project, dose response (AID 743047).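 Note: HEK293 cells carrying a Pax5 driven CD19 promoter luciferase reporter; potency of inhibitors that lower reporter luminescence.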 In kind it is functional.
Assay [37] in a line: OV-90 cell viability loss – plate reader, dry powder, SA8, PAX8 inhibitor project, dose response (AID 743149). The assay is classed as functional, cell-based.
Assay [38] can be described thus: COV434 cell viability loss – plate reader, dry powder, SA7, cytotoxicity control for PAX8 inhibitor project, dose response (AID 743145). The assay is classed as functional, cell-based.
The nature of assay [39]: inhibitors acting on PAX2 in cells – cell-based, plate reader, dry powder samples, selectivity assay for PAX8 inhibitor project, dose response (AID 743048).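 Note: HEK293 cells carrying a WT1 promoter luciferase reporter driven by expressed Pax2; potency is for inhibition of Pax2 driven reporter signal.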 In kind it is functional.
A short description of assay [40]: PAX8-dependent cell viability loss – plate reader, dry powder, dose response (AID 743049). The assay is classed as functional, cell-based.

Paired box protein Pax-8, sequence (Q06710 whole entry): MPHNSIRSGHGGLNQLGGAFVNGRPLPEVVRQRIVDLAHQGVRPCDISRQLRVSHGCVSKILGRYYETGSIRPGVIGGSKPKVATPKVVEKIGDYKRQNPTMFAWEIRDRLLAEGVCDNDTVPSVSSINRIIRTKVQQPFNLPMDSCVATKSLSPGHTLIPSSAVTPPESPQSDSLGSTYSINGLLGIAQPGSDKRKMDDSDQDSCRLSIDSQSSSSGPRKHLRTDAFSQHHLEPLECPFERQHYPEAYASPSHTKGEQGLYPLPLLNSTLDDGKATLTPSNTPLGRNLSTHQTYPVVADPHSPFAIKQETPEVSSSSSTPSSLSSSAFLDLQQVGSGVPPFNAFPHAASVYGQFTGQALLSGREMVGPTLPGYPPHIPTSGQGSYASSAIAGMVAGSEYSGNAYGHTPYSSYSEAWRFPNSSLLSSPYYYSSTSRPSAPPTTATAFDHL
Luciferin 4-monooxygenase, sequence (P08659 whole entry): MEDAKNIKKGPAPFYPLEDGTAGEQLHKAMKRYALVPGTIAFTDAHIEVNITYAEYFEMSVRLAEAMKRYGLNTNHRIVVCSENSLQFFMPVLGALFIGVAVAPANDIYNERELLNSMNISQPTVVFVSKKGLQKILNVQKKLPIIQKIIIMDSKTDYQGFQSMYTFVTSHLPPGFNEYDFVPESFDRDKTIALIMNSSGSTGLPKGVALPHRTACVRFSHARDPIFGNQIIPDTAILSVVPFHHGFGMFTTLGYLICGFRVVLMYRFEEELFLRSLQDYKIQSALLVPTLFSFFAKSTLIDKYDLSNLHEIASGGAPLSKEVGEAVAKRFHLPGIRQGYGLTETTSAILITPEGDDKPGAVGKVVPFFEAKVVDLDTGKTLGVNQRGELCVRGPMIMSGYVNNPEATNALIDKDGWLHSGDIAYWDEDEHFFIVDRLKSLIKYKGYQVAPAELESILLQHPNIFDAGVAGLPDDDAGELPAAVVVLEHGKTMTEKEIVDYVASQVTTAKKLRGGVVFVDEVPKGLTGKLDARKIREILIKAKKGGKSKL

In the case of `COc1cc(Br)c(CCNc2ccnc3ccccc23)cc1OC`, in assay [1], the IC50 (as a rule, the concentration that inhibits the measured activity by half) was 0.45 µM (active).
For `COc1ccccc1-c1ccc([C@@H]2[C@@H]3CN(S(=O)(=O)c4ccc(-c5ccccc5)cc4)C[C@H]2N3)cc1`, the AC50 (commonly the midpoint of the concentration-response curve, whichever way the signal moves) at Paired box protein Pax-8 was 23.3 µM (active); in assay [2], 56 µM (active); in [3] it was 49.5 µM (active); in [4], 33.6 µM (active); in assay [5], 0.302 µM (active); in assay [6], 2.6 µM (active). The AC50 in [7] is 10.6 µM (active); in assay [8], 9.34 µM (active).
For `C[C@@H]1CN([C@H](C)CO)C(=O)c2cccc(NC(=O)c3ccncc3)c2O[C@@H]1CN(C)Cc1ccc(Oc2ccccc2)cc1`, the IC50 in assay [9] was > 100 µM (inactive); in assay [10] it was 1.31 µM (inactive); in [13], 2.63 µM (inactive); in [14], 1.16 µM (active); in [15], 44.2 µM (inactive); in assay [16], 2 µM (active). For the same compound, the IC50 was 2.23 µM (inactive) in [17], 64.6 µM (inactive) in [19] and > 100 µM (inactive) in assay [20]. Also, the AC50 in [11] was 0.286 µM (active); in [12], 1.05 µM (active); in assay [18], 0.309 µM (active).
Take `CC(C)C(=O)NC(c1ccco1)c1ccc2cccnc2c1O` (stereo not given): the EC50 (as a rule, the concentration giving half of the maximal effect) in assay [21] was 4.72 µM (inconclusive); in the assay with Streptococcus, 3.87 µM (active); in the assay “cells [25]”, 16.5 µM (active); in “cells [29]”, > 350 µM (not active); in assay [32], 1.6 µM (active); in the assay on HT-1080, > 50 µM (not active). In addition, the EC50 in assay [33] was 38.8 µM (active); in assay [35] it was 3.15 µM (active). The AC50 was 4.36 µM (active) in assay [22]; 3.72 µM (active) in assay [23]; > 52 µM (inactive) in assay [24]; 3.1 µM (active) in assay [26]; > 52 µM (inactive) in assay [27]; 2.05 µM (active) in [28]. The AC50 in assay [30] is 5 µM (active); in assay [31], 8.18 µM (active); in assay [34], 6.24 µM (active). Further, on Coagulation factor XII, the IC50 is > 50 µM (inactive).
On to `COc1cccc(C#Cc2ccc([C@H]3[C@@H](CO)N(C(=O)c4ccccn4)[C@H]3C#N)cc2)c1`, for which the AC50 on Paired box protein Pax-8 was 2.41 µM (active); in assay [2], 51.4 µM (active); in assay [3], 17.8 µM (active); in [4] it was 14.6 µM (active); in assay [36], 7.82 µM (active); in [6], 1.27 µM (active). Further, the AC50 is > 39 µM (inactive) in [7]; 24.1 µM (active) in [37]; 18.4 µM (active) in [38]; 9.59 µM (active) in [39]; 10.4 µM (active) in assay [40].

These data come from ChEMBL document CHEMBL1201862, “PubChem BioAssay data set” (2004).
